Assay results reported in PubChem BioAssay AID2060614 (Molecular Pharmacology Branch, DTP, NCI, 2025).
Values joined by “and” are separate entries in the source; they are usually repeats but may differ in a detail not shown here. Identical values can stand only once.

System: 598228-144-R-J1-PDC complex spheroids, viability
Assay: Anticancer human tumor 598228-144-R-J1-PDC patient-derived serous endometrial adenocarcinoma cell line growth inhibition [CLK]
Settings: for viability, T/C: stronger effect = lower value
From the text: A high-throughput screen of multi-cell type tumor spheroids was designed to identify active combinations of […] and targeted small molecules. Complex spheroids include a stromal component modeled by human endothelial cells (HUVEC) and fibroblasts modeled by human mesenchymal stem cells (MSCs). The concentration ranges selected for each drug and investigational agent were based upon clinically achievable concentrations if the clinical Cmax of the agent was known.
Compounds. The drugs and investigational agents: cirtuvivint (SM08502; NSC835563), CC-671 (NSC850746), vemurafenib (NSC761431), tapotoclax (NSC804041), sotorasib (NSC818433), adagrasib (NSC831453), MRTX-1133 (NSC836407), BAY2416964 (NSC825713), copanlisib (NSC816437), inavolisib (NSC800729), abemaciclib (NSC768073), osimertinib (NSC779217), entinostat (NSC756642), eltanexor (KPT-8602, NSC794443), venetoclax (NSC766270), ceralasertib (NSC777638), bortezomib (NSC756655), olaparib (NSC753686), talazoparib (NSC767125), alisertib (NSC759677), peposertib (NSC802822), gemcitabine (NSC613327), 5-fluorouracil (NSC19893), SN-38 (NSC673596), oxaliplatin (NSC266046), paclitaxel (NSC125973), and doxorubicin (NSC123127), were obtained from the National Cancer Institute (NCI) Developmental Therapeutics Program Chemical Repository. The FDA-approved anticancer drug set is available from the Developmental Therapeutics Program at https://dtp.cancer.gov/organization/dscb/obtaining/available plates.htm. […] The stock solutions were prepared in dimethyl sulfoxide (DMSO, Sigma-Aldrich, St. Louis, MO, cat. D2650), except for the platinum complexes which were prepared in saline (Quality Biological, Gaithersburg, MD, cat. 114-055-101), at 800-fold the tested concentration and stored at -70 degrees C prior to their use. All drugs and investigational agents were tested over a range starting from a high concentration at or near the clinical Cmax and decreasing in half-log increments. If the clinical Cmax for an agent had not been determined, the highest concentration tested was 10 microM.
Cell Culture. All cells were maintained in an incubator at 37 degrees C and 5% CO2 with 95% humidity. The PDC lines were cultured according to standard operating procedures established by the NCI PDMR. Briefly, all PDCs were thawed and cultured in Matrigel-coated flasks prepared with a working solution of 1X Ham's F-12 nutrient mix, without supplementation (Invitrogen, Waltham, MA, cat. 11765054), 100 U/mL penicillin-streptomycin (Invitrogen, cat. 15140122), and 2.5% Matrigel (Corning Inc., Corning, NY, cat. 354248) for the first three passages. The 947758-054-R-J2-PDC line was cultured in 6B/Colon 1A media, which includes advanced DMEM/F-12 (Thermo Fisher Scientific, cat. 12634028), 10 mM HEPES (Thermo Fisher Scientific, cat. 15630080), 1X GlutaMAX supplement (Thermo Fisher Scientific, cat. 35050061), 0.1 mg/mL primocin (InvivoGen, cat. ant-pm-2), 10% defined fetal bovine serum, heat inactivated (HyClone Laboratories Inc., cat. SH30070.03HI), 1.25 mM N-Acetyl-L-cysteine (Sigma-Aldrich, cat. A9165), 10 mM nicotinamide (Sigma-Aldrich, cat. N0636), 1X B-27 supplement (Thermo Fisher Scientific, cat. 17504044), 1X N-2 supplement (Thermo Fisher Scientific, cat. 17502048), and 10 microM Y-27632 dihydrochloride (Tocris Bioscience, cat. 1254). The 876862-298-R-J1-PDC was cultured in 6E media, which includes all 6B/Colon 1A media components plus 50% L-WRN conditioned media (ATCC, cat. CRL-3276), 50 ng/mL recombinant human EGF recombinant protein (hEGF; Thermo Fisher Scientific, cat. PHG0311), 10 ng/mL recombinant human fibroblast growth factor 10 (hGFG-10; PeproTech, cat. 100-26), 1 ng/mL recombinant human fibroblast growth factor 2 (hFGF-2; PeproTech, cat. 100-18B), and 1 µM prostaglandin E2 (PGE2; Tocris, cat. 2296). The 227483-062-R1-J1-PDC line was cultured in Panc media, containing all 6E components except hFGF-2, with the addition of 500 nM SB-431542 (Selleckchem, cat. S1067) and 10 nM gastrin (Tocris, cat. 3006). […]

[1] = curve of first compound, second compound 0.0316 µM
[2] = curve of first compound, second compound 0.1 µM
[3] = curve of first compound, second compound 0.316 µM
[4] = curve of first compound, second compound 1 µM
[5] = curve of first compound, second compound 3.16 µM
[6] = curve of first compound, second compound 10 µM
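Further: spheroids exposed to compounds for seven days before readout.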
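Wherever viability, T/C is given: 100% = DMSO vehicle control wells.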

Work on `CC(C)CC(NC(=O)C(Cc1ccccc1)NC(=O)c1cnccn1)B(O)O` (stereo unspecified) + CNC(=O)c1ccc(Nc2nc(OC3CCCC3)c3c(-c4ccc5nc(C)oc5c4)c[nH]c3n2)c(OC)c1 yielded an IC50 [1] of 4.68 nM, an IC50 [2] of 5.05 nM and an IC50 [3] of 3.47 nM. For the same molecule, the IC50 [4] was 2.18 nM, the IC50 [5] was 2.08 nM and the IC50 [6] was 1.96 nM. It also gave a viability, T/C (second compound 0.0316 µM, first compound 0.000949 µM) of 111%, a viability, T/C (second compound 0.0316 µM, first compound 0.003 µM) of 79.8% and a viability, T/C (second compound 0.0316 µM, first compound 0.00949 µM) of 2.81%. For the same molecule, the viability, T/C (second compound 0.0316 µM, first compound 0.03 µM) was 0.55%, the viability, T/C (second compound 0.0316 µM, first compound 0.0949 µM) was 0.7% and the viability, T/C (second compound 0.0316 µM, first compound 0.3 µM) was 0.37%. The viability, T/C (second compound 0.1 µM, first compound 0.000949 µM) was 127%, the viability, T/C (second compound 0.1 µM, first compound 0.003 µM) was 88.8% and the viability, T/C (second compound 0.1 µM, first compound 0.00949 µM) was 3.14%. For the same molecule, the viability, T/C (second compound 0.1 µM, first compound 0.03 µM) was 0.58%, the viability, T/C (second compound 0.1 µM, first compound 0.0949 µM) was 0.44% and the viability, T/C (second compound 0.1 µM, first compound 0.3 µM) was 0.49%. The viability, T/C (second compound 0.316 µM, first compound 0.000949 µM) was 116%, the viability, T/C (second compound 0.316 µM, first compound 0.003 µM) was 56.7% and the viability, T/C (second compound 0.316 µM, first compound 0.00949 µM) was 3.51%. It also gave a viability, T/C (second compound 0.316 µM, first compound 0.03 µM) of 0.83%, a viability, T/C (second compound 0.316 µM, first compound 0.0949 µM) of 0.51% and a viability, T/C (second compound 0.316 µM, first compound 0.3 µM) of 0.91%. For the same molecule, the viability, T/C (second compound 1 µM, first compound 0.000949 µM) was 128%, the viability, T/C (second compound 1 µM, first compound 0.003 µM) was 19.7% and the viability, T/C (second compound 1 µM, first compound 0.00949 µM) was 1.31%. The viability, T/C (second compound 1 µM, first compound 0.03 µM) was 0.56%, the viability, T/C (second compound 1 µM, first compound 0.0949 µM) was 0.77% and the viability, T/C (second compound 1 µM, first compound 0.3 µM) was 1.17%. For the same molecule, the viability, T/C (second compound 3.16 µM, first compound 0.000949 µM) was 128%, the viability, T/C (second compound 3.16 µM, first compound 0.003 µM) was 13.9% and the viability, T/C (second compound 3.16 µM, first compound 0.00949 µM) was 0.9%. It also gave a viability, T/C (second compound 3.16 µM, first compound 0.03 µM) of 0.44%, a viability, T/C (second compound 3.16 µM, first compound 0.0949 µM) of 2.9% and a viability, T/C (second compound 3.16 µM, first compound 0.3 µM) of 1.57%. It also gave a viability, T/C (second compound 10 µM, first compound 0.000949 µM) of 115%, a viability, T/C (second compound 10 µM, first compound 0.003 µM) of 11.9% and a viability, T/C (second compound 10 µM, first compound 0.00949 µM) of 2.24%. It also gave a viability, T/C (second compound 10 µM, first compound 0.03 µM) of 1.62%, a viability, T/C (second compound 10 µM, first compound 0.0949 µM) of 0.46% and a viability, T/C (second compound 10 µM, first compound 0.3 µM) of 2.11%.
In the case of `Nc1ccccc1NC(=O)c1ccc(CNC(=O)OCc2cccnc2)cc1`, the viability, T/C (compound 0.0316 µM) is reported as 104% and 85.5%, the viability, T/C (compound 0.1 µM) is reported as 94.5% and 92.8% and the viability, T/C (compound 0.316 µM) is reported as 78.2% and 73.5%. The viability, T/C (compound 1 µM) was 35.4% and 61.1%, the viability, T/C (compound 3.16 µM) was 20% and 20.5% and the viability, T/C (compound 10 µM) was 3.38% and 10.9%. For the same molecule, the IC50 (curve of compound) was 713 nM and 1280 nM.
`CC1(C)CCC(CN2CCN(c3ccc(C(=O)NS(=O)(=O)c4ccc(NCC5CCOCC5)c([N+](=O)[O-])c4)c(Oc4cnc5[nH]ccc5c4)c3)CC2)=C(c2ccc(Cl)cc2)C1` + CN1CCN(c2cc(C(=O)Nc3cc4cc(-c5cnn(C)c5)ccc4cn3)ccn2)CC1 gave an IC50 [1] of 7680 nM, an IC50 [2] of 7690 nM and an IC50 [3] of under 31.6 nM. For the same molecule, the IC50 [4] was under 31.6 nM, the IC50 [5] was under 31.6 nM and the IC50 [6] was under 31.6 nM. It also gave a viability, T/C (second compound 0.0316 µM, first compound 0.0316 µM) of 138%, a viability, T/C (second compound 0.0316 µM, first compound 0.1 µM) of 113% and a viability, T/C (second compound 0.0316 µM, first compound 0.316 µM) of 111%. The viability, T/C (second compound 0.0316 µM, first compound 1 µM) was 118%, the viability, T/C (second compound 0.0316 µM, first compound 3.16 µM) was 114% and the viability, T/C (second compound 0.0316 µM, first compound 10 µM) was 30.9%. The viability, T/C (second compound 0.1 µM, first compound 0.0316 µM) was 116%, the viability, T/C (second compound 0.1 µM, first compound 0.1 µM) was 121% and the viability, T/C (second compound 0.1 µM, first compound 0.316 µM) was 116%. It also gave a viability, T/C (second compound 0.1 µM, first compound 1 µM) of 124%, a viability, T/C (second compound 0.1 µM, first compound 3.16 µM) of 113% and a viability, T/C (second compound 0.1 µM, first compound 10 µM) of 31%. It also gave a viability, T/C (second compound 0.316 µM, first compound 0.0316 µM) of 19.3%, a viability, T/C (second compound 0.316 µM, first compound 0.1 µM) of 16.8% and a viability, T/C (second compound 0.316 µM, first compound 0.316 µM) of 14.4%. For the same molecule, the viability, T/C (second compound 0.316 µM, first compound 1 µM) was 15.5%, the viability, T/C (second compound 0.316 µM, first compound 3.16 µM) was 11.9% and the viability, T/C (second compound 0.316 µM, first compound 10 µM) was 7.07%. For the same molecule, the viability, T/C (second compound 1 µM, first compound 0.0316 µM) was 1.25%, the viability, T/C (second compound 1 µM, first compound 0.1 µM) was 1.59% and the viability, T/C (second compound 1 µM, first compound 0.316 µM) was 2.76%. It also gave a viability, T/C (second compound 1 µM, first compound 1 µM) of 1.46%, a viability, T/C (second compound 1 µM, first compound 3.16 µM) of 2.58% and a viability, T/C (second compound 1 µM, first compound 10 µM) of 1.73%. It also gave a viability, T/C (second compound 3.16 µM, first compound 0.0316 µM) of 1.65%, a viability, T/C (second compound 3.16 µM, first compound 0.1 µM) of 3.1% and a viability, T/C (second compound 3.16 µM, first compound 0.316 µM) of 1.66%. The viability, T/C (second compound 3.16 µM, first compound 1 µM) was 1.86%, the viability, T/C (second compound 3.16 µM, first compound 3.16 µM) was 3.99% and the viability, T/C (second compound 3.16 µM, first compound 10 µM) was 4.73%. It also gave a viability, T/C (second compound 10 µM, first compound 0.0316 µM) of 0.92%, a viability, T/C (second compound 10 µM, first compound 0.1 µM) of 2.13% and a viability, T/C (second compound 10 µM, first compound 0.316 µM) of 0.62%. The viability, T/C (second compound 10 µM, first compound 1 µM) was 0.79%, the viability, T/C (second compound 10 µM, first compound 3.16 µM) was 2.58% and the viability, T/C (second compound 10 µM, first compound 10 µM) was 3.9%.
